System: adult ventricular myocytes
Method: Single cardiac myocytes were isolated from rabbit ventricles by collagenase digestion (D. A. Eisner, C. G. Nichols, S. C. O'Neill, G. L. Smith and M. Valdeomillos, The effects of metabolic inhibition on intracellular calcium an pH in isolated rat ventricular cells, Journal of Physiology, 411, (1989), 393-418) and kept in Base Krebs Solution, containing 120 mM NaCl, 20 mM sodium N-hydroxyethylpiperazine-N′-2-ethane sulphonic acid, 5.4 mM KCl, 0.52 mM NaH2PO4, 3.5 mM MgCl2.6H2O, 20 mM Taurine, 10 mM Creatine, 100 mM Glucose, 0.1% BSA, 0.1 mM CaCl2. The pH was adjusted to 7.4 with 100 mM NaOH.
Sarcomere length and intracellular Ca^2+ concentration ([Ca^2+]i) were monitored simultaneous using the fluorescence-contractility System of Ionoptix (Milton, Mass., USA). Ventricular myocytes were loaded with Fluo-3 by incubation for 30 min in 20 μM Fluo-3 AM solution (Molecular Probes). […] To measure the possible change in extracellular pH during field stimulation, 10 μM BCECF (Molecular Probes) was added to the bath and the emission was recorded using the same filter set as for Fluo-3. […]
Symmetric biphasic rectangular pulses were generated across the electrodes. […] A voltage-current converter was used to read the current response of one electrode together with the corresponding voltage into a 20 MHz 4 channel acquisition card (PCI-9812, Adlink, Taiwan). A TTL signal synchronous to the biphasic pulses was fed into the reader of the PMT-current to mark each pulse arrival on the fluorescence trace for off-line event averaging. After filling the microchambers with electrolyte (buffer), the current evoked on the individual stimulation electrodes was monitored to assure the ionic connection between the microelectrodes in each chamber, prior to the addition of cardiac muscle cells. The measured current was integrated to give a measure of the total amount of net-charge added to the microchamber, and the polarization of the electrode surface. […]

In the case of N#CC(C#N)=NNc1ccc(OC(F)(F)F)cc1 [FCCP], the “Ca2+ transients evoked at 0.5 Hz” value (1 μM FCCP, 10 minutes after the 50 min time point of continual stimulation, 100 pL chamber) is reported as “ceased almost completely”, the “response of the cell to electrical stimuli (Ca2+ transient)” value (1 μM FCCP, after 50 min continual stimulation at alternating frequencies of 0.5 and 1.0 Hz, 100 pL chamber) is reported as “no longer responded to every single stimulus with a Ca^2+ transient of normal amplitude” and the “excitability of the cell after washing out” value (after washing out FCCP, changing the buffer and a 5 min rest interval) is reported as “regained its excitability”.

— patent publication US8003372B2, “Device for performing cell assays” (The University Court of the University of Glasgow, priority 2002, dated 2011)
